In brackets after ≈: the same amount, converted by molar mass. Several values for one entry are separate records, joined by “and”; a condition that tells them apart may be missing. Equal values may be shown once. Read-outs that look alike come from different tables or passages of the source.
Columns and labels:
[1] = Protocol: Methomyl and Oxamyl Solubility In Cyclohexanone, Cyclohexanol, CH3 OH and H2 O at -6° C.
Methomyl and oxamyl were dissolved separately and in weight ratios of 1:1, 2:1 and 1:2.5 methomyl to oxamyl in a solvent system consisting of 30 wt. % cyclohexanone, 30 wt. % cyclohexanol, 30 wt. % water and 10 wt. % methanol. These solutions were equilibrated at -6° C. and seeded with methomyl and/or oxamyl crystals. The samples of liquid and solids remained at -6° C. until solid-liquid equilibrium was assured. A liquid sample was removed from each at -6° C. and assayed for methomyl and/or oxamyl. Solids were also isolated at -6° C., washed, dried and dissolved in CH3 OH to yield a 10% solution which was analyzed by TLC to ensure both methomyl and oxamyl crystals were present in the solids of the combination sample. All such solids contained both oxamyl and methomyl.
SOLUBILITY OF METHOMYL AND OXAMYL (2:1, 1:1 and 1:2.5 Wt.
RATIOS) IN CYCLOHEXANONE, CYCLOHEXANOL, CH3 OH AND H2 O

[2] = physchem; settings: for solubility: Oxamyl alone in solvent
Protocol: Methomyl and oxamyl were added to various methanol:water solvent systems ranging from 100% CH3 OH to 40% CH3 OH:60% H2 O. The methomyl and oxamyl were dissolved separately or combined on a 1:1 weight ratio in the solvent systems at room temperature at a concentration exceeding the solubility limit at -6° C. Each sample was seeded with methomyl and/or oxamyl at -6° C. and allowed to crystallize until equilibrium was established. The supernatant liquid of each sample was assayed for methomyl and/or oxamyl by liquid chromatography.

[3] = physchem; settings: for solubility: Oxamyl alone in solvent; remark: listed apart in the source
Protocol: Methomyl and oxamyl were added to various methanol:water solvent systems ranging from 100 wt. % CH3 OH to 30 wt. % CH3 OH:70 wt. % H2 O. […] The samples were equilibrated at -6° C. in a constant temperature freezer after which they were seeded with methomyl and oxamyl crystals to ensure crystallization of both materials. After crystal-liquid equilibrium was assured, liquid was removed at -6° C. and assayed for methomyl and oxamyl. Solids were also removed at -6° C., washed with hexane and dried. The solids were then dissolved in methanol to yield a 10 wt. % solution. This solution was evaluated by thin layer chromatography (TLC) to ensure the solids consisted of both methomyl and oxamyl.
Solubility of Methomyl and Oxamyl 1:2.5 wt. ratio in CH3 OH:H2 O at -6° C.
Example 3 was repeated by dissolving methomyl and oxamyl in a 1:2.5 weight ratio in the same solvent systems under the same conditions.

[4] = remark: listed apart in the source
Protocol: Solubility of Methomyl and Oxamyl 80:20 Wt. Ratio Acetone:H2 O
Methomyl and oxamyl were dissolved in a solvent system consisting of 80 wt. % acetone and 20 wt. % water separately and in 1:1, 2:1 and 1:2.5 wt. ratios of methomyl and oxamyl. These solutions were equilibrated at -6° C. and were seeded with methomyl and/or oxamyl. They remained at -6° C. until solid-liquid equilibrium was assured. Liquid was removed from each sample at -6° C. and assayed for methomyl and oxamyl. Solids were also removed at -6° C., washed, dried and dissolved in methanol to yield a 10 wt. % solution which was evaluated by TLC for oxamyl and methomyl.

[5] = remark: listed apart in the source
Protocol: Methomyl and/or oxamyl were added to a solvent system consisting of 60% cyclohexanone, 10% methanol and 30% water at room temperature at a concentration higher than the solubility limit at -6° C. The methomyl and oxamyl were added together, at weight ratios of 2:1, 1:1 and 1:2.5. The solutions were cooled to -6° C. and seeded with methomyl and/or oxamyl to initiate crystallization. The solutions remained at -6° C. until equilibrium was assured. The supernatant liquid in each sample was analyzed for methomyl and oxamyl by liquid chromatography.

[6] = physchem; settings: for solubility: Oxamyl alone in solvent; remark: listed apart in the source
Protocol: Solubility of Methomyl and Oxamyl (2:1 wt. ratio) in CH3 OH/H2 O at -6° C.
Methomyl and oxamyl were added to various methanol:water solvent systems ranging from 100 wt. % CH3 OH to 30 wt. % CH3 OH:70 wt. % H2 O. The methomyl and oxamyl were dissolved in a 2:1 weight ratio of 50 wt. % methomyl to 25 wt. % oxamyl in the solvent systems. The samples were equilibrated at -6° C. in a constant temperature freezer after which they were seeded with methomyl and oxamyl crystals to ensure crystallization of both materials. After crystal-liquid equilibrium was assured, liquid was removed at -6° C. and assayed for methomyl and oxamyl. Solids were also removed at -6° C., washed with hexane and dried. The solids were then dissolved in methanol to yield a 10 wt. % solution. This solution was evaluated by thin layer chromatography (TLC) to ensure the solids consisted of both methomyl and oxamyl.

## CNC(=O)ON=C(SC)C(=O)N(C)C [Oxamyl, methyl N',N'-dimethyl-N-[(methylcarbamoyl)oxy]-1-thiooxamimidate]
[1]
  Solubility, both actives in solvent: Oxamyl: 83.0 gms/100 gms solvent and 63.7 gms/100 gms solvent and 61.8 gms/100 gms solvent
[1]; alone, 30% cyclohexanone, 30% cyclohexanol, 30% water, 10% methanol, -6° C.
  Solubility, Oxamyl alone in solvent: 41.5 gms/100 gms solvent
[2]
  Solubility, both actives in solvent: Oxamyl: 80 gms/100 gms
[2]; 40/60 ch3oh/h2o, alone, -6° C.
  solubility: 209 mg/mL (≈ 953 mM)
[2]; 50/50 ch3oh/h2o, alone, -6° C.
  solubility: 290 mg/mL (≈ 1320 mM)
[2]; 60/40 ch3oh/h2o, alone, -6° C.
  solubility: 397 mg/mL (≈ 1810 mM)
[2]; 70/30 ch3oh/h2o, alone, -6° C.
  solubility: 422 mg/mL (≈ 1920 mM)
[2]; 80/20 ch3oh/h2o, alone, -6° C.
  solubility: 447 mg/mL (≈ 2040 mM)
[2]; 90/10 ch3oh/h2o, alone, -6° C.
  solubility: 406 mg/mL (≈ 1850 mM)
[2]; alone, 100/0 CH3OH/H2O, -6° C.
  Solubility, Oxamyl alone in solvent: 33.3 gms/100 gms
[2]; summary of Examples 2-7
  Solubility when dissolved together in the solvents taught: increases in solubility occur
[3]
  Solubility, both actives in solvent: Oxamyl: 72.3 gms/100 gms
[3]; 40/60 ch3oh/h2o, alone, -6° C.
  solubility: 209 mg/mL (≈ 953 mM)
[3]; 50/50 ch3oh/h2o, alone, -6° C.
  solubility: 291 mg/mL (≈ 1330 mM)
[3]; 60/40 ch3oh/h2o, alone, -6° C.
  solubility: 396 mg/mL (≈ 1810 mM)
[3]; 70/30 ch3oh/h2o, alone, -6° C.
  solubility: 423 mg/mL (≈ 1930 mM)
[3]; 80/20 ch3oh/h2o, alone, -6° C.
  solubility: 448 mg/mL (≈ 2040 mM)
[3]; 90/10 ch3oh/h2o, alone, -6° C.
  solubility: 404 mg/mL (≈ 1840 mM)
[3]; alone, 100/0 CH3OH/H2O, -6° C.
  Solubility, Oxamyl alone in solvent: 33.3 gms/100 gms
[4]
  Solubility, both actives in solvent: Oxamyl: 84.6 gms/100 gms solvent and 79.3 gms/100 gms solvent and 82.8 gms/100 gms solvent
[4]; alone, 80:20 wt acetone/H2O, -6° C.
  Solubility, Oxamyl alone in solvent: 52.0 gms/100 gms solvent
[5]
  Solubility, both actives in solvent: Oxamyl: 84.8 gms/100 gms solvent and 80.1 gms/100 gms solvent and 82.7 gms/100 gms solvent
[5]; alone, 60% cyclohexanone, 10% methanol, 30% water, -6° C.
  Solubility, Oxamyl alone in solvent: 48.4 gms/100 gms solvent
[6]
  Solubility, both actives in solvent: Oxamyl: 113 gms/100 gms
[6]; 40/60 ch3oh/h2o, alone, -6° C.
  solubility: 209 mg/mL (≈ 953 mM)
[6]; 50/50 ch3oh/h2o, alone, -6° C.
  solubility: 290 mg/mL (≈ 1320 mM)
[6]; 60/40 ch3oh/h2o, alone, -6° C.
  solubility: 397 mg/mL (≈ 1810 mM)
[6]; 70/30 ch3oh/h2o, alone, -6° C.
  solubility: 422 mg/mL (≈ 1920 mM)
[6]; 80/20 ch3oh/h2o, alone, -6° C.
  solubility: 447 mg/mL (≈ 2040 mM)
[6]; 90/10 ch3oh/h2o, alone, -6° C.
  solubility: 406 mg/mL (≈ 1850 mM)
[6]; alone, 100/0 CH3OH/H2O, -6° C.
  Solubility, Oxamyl alone in solvent: 33.3 gms/100 gms
[6]; methanol:water solvent systems, 2:1 wt. ratio dissolved initially, -6° C.
  Solubility change when dissolved in combination: increased

Source: patent US4032654A, “Water-soluble, liquid concentrates of S-methyl-[(methyl-carbamoyl)oxy]-thioacetimidate and methyl N', N'-dimethyl-N-[(methyl-carbamoyl)oxy]-1-thiooxamimidate” (priority 1975, dated 1977)
